Test results reported in ChEMBL document CHEMBL1122110, “Use of (S)-(trifloxymethyl)oxirane in the synthesis of a chiral beta-adrenoceptor antagonist, (R)- and (S)-9-[[3-(tert-butylamino)-2-hydroxypropyl]oximino]fluorene” (J Med Chem, 1982).

How the values were obtained:
[1] = molecular target: Beta-2 adrenergic receptor (Cavia porcellus, UniProt Q8K4Z4); test: Beta-2 adrenergic receptor antagonistic activity on guinea pig tracheal chains; format: functional; conditions: read-out: pA2 (converted)
[2] = molecular target: Beta-1 adrenergic receptor (Cavia porcellus, UniProt B0FL73); test: Compound was tested for its Beta-1 adrenergic receptor antagonistic activity on guinea pig atria; format: functional; conditions: read-out: pA2 (converted)
[3] = molecular target: Beta-2 adrenergic receptor (Bos taurus, UniProt Q28044); test: Compound was tested for inhibition of [3H]dihydroalprenolol radioligand binding to Beta-2 adrenergic receptor in calf lung membranes.; format: cell membranes
Sequence of Beta-2 adrenergic receptor (Bos taurus, UniProt Q28044) (Q28044 whole entry): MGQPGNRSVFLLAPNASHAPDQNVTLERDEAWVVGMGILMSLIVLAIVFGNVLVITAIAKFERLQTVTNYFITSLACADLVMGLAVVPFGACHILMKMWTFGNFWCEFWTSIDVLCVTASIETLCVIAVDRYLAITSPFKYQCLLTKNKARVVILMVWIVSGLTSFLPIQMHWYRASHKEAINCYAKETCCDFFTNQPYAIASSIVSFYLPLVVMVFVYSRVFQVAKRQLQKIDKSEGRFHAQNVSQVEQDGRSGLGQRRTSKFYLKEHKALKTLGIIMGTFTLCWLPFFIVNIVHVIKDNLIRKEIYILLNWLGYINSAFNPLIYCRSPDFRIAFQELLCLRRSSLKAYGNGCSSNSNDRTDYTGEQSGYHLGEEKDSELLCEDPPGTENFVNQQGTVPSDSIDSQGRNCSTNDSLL

Sequence of Beta-1 adrenergic receptor (B0FL73 whole entry): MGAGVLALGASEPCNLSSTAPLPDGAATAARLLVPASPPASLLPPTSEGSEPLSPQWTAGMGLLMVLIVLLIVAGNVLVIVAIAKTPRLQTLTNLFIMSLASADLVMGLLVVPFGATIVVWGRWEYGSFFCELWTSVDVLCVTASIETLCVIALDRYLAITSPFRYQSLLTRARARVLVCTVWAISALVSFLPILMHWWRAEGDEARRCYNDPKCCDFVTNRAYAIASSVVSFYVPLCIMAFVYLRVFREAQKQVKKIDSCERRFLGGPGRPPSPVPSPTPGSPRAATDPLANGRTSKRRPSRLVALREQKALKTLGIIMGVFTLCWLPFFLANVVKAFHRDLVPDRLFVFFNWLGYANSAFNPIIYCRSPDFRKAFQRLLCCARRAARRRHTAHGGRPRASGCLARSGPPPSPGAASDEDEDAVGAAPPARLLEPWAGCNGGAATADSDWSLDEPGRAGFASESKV
Sequence of Beta-2 adrenergic receptor (Cavia porcellus, UniProt Q8K4Z4) (Q8K4Z4 whole entry): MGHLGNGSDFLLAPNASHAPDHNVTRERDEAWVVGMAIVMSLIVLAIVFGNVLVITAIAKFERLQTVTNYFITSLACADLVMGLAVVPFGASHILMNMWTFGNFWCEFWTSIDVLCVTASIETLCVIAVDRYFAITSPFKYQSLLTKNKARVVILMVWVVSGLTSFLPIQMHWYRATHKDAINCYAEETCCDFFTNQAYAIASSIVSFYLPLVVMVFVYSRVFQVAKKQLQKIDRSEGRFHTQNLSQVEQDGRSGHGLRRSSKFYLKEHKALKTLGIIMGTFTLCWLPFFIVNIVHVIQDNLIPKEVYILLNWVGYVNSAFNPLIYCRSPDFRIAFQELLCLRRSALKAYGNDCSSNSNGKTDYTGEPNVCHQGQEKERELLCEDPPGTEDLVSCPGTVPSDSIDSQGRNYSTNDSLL

Row | Compound | Kb [1] [nM] | Kb [2] [nM] | IC50 [3] [nM]
1 | CCC(C)(C)NCC(O)CON=C1c2ccccc2-c2ccccc21 (stereo unspecified) | 85.1 | 34.7 | –
2 | CC(C)(C)NC[C@@H](O)CON=C1c2ccccc2-c2ccccc21 | 18.2 | 13.2 | 20.1
3 | CCC(C)(C)NC[C@H](O)CON=C1c2ccccc2-c2ccccc21 | 74.1 | 16.6 | –
4 | Cc1ccc(OCC(O)CNC(C)C)c2c1CCC2 (stereo unspecified) | 31.6 | 97.7 | 17.6
5 | CC(C)(C)NC[C@H](O)CON=C1c2ccccc2-c2ccccc21 | 17 | 37.2 | 30.8
6 | CC(C)(C)NCC(O)CON=C1c2ccccc2-c2ccccc21 (stereo unspecified) | 66.1 | 33.9 | 24.6
